≈ marks a conversion by molar mass, not a printed value. Entries after “also recorded” stand apart in the source; their conditions may differ. Read-outs that look alike come from different tables or passages of the source.
What was measured:
[1] = test system: Pyricularia oryzae IFO-5279; type: cell-based; conditions: medium A, 28 °C, time 40
Japanese killifish = experiment: Fish toxicity test; type: in vivo; conditions: 20 ppm, 7 days observation
[2] = test system: Penicillium expansum IFO-7813; experiment: Antimicrobial spectrum (in vitro), agar dilution and diffusion methods; type: cell-based; conditions: medium A, 28 °C, time 40
powdery mildew of pepper = experiment: Control test of powdery mildew of pepper
Method: (§6) The control chemical was also similarly diluted with water.
The reverse sides of unfolded leaves of pot-grown pepper plants (9 to 10-leaf stage, Capsicum annuum L. f. California Wonder) were inoculated, by dusting, with the pathogenic fungi from infected leaves. Two days later, the leaves were sprayed with adequate volume of test solutions as in Test Example 1. Then, the plants were grown and cared in a green-house and, after timed intervals, the percent area of fungal growth was determined. This test was performed in duplicate for each group.

[3] = test system: Phytophthora infestans (Montagne) de Bary; type: in vivo
[4] = test system: powdery mildew of tobacco plant; experiment: Control test of powdery mildew of tobacco plant
Method: as §6
Tobacco plants (Nicotiana tabacum L. f. MC) grown in pots, with the fourth mature leaf sufficiently unfolded, were prepared in a green-house, two pots per group, for this test. To encourage the onset of the disease, the pots of diseased plants were placed next to the test pots for spontaneous infection. The fungicidal solutions were prepared in the same manner as Test Example 1 and sprayed onto the test plants in two divided doses, each in sufficient volume, at intervals of 10 days. The percent area of the lesion was investigated 9 days and 15 days, respectively, after the last application.

[5] = test system: Guignardia laricina IFO-7888; experiment: Antimicrobial spectrum (in vitro), agar dilution and diffusion methods; type: cell-based; conditions: medium A, 28 °C, time 88
Method: (§1) The antimicrobial spectrum of the antibiotic B-98891 as measured by the agar dilution and diffusion methods is shown in Table 3. The "diameter of inhibition zone" in the table represents the diameter of the inhibition zone formed around a paper disc(7 mm. in diameter) immersed in a 5000 μg/ml. solution of the present antibiotic.
(§2) A 3.0 % sucrose, 0.2 % L-asparagine, 0.3 % NH4 NO3, 0.1 % KH2 PO4, 0.1 % MgSO4.7H2 O, 0.001 % versenol (manufactured by Dow Chemical Co.; an iron chelate compound; content of iron-sodium ethanol ethylene diamine triacetate is 57.04 %), 1.5 % agar (pH 7) Before use, the following vitamins are added to the medium to the indicated final concentrations. 1 μg/ml. thiamine, 1 μg/ml. riboflavin, 1 μg/ml. calcium pantothenate, 1 μg/ml. niacin, 0.005 μg/ml. biotin, 0.5 μg/ml. folic acid, 2 μg/ml. pyridoxine hydrochloride, 0.5 μg/ml. p-aminobenzoic acid, 0.0002 μg/ml. cyanocobalamin

Botrytis cinerea TKF-12 = experiment: as above; type: cell-based; conditions: medium A, 20 °C, time 88
Method: as §1, §2

[6] = test system: Mycobacterium phlei IFO-3158; experiment: as above; type: cell-based; conditions: medium C, 37 °C, time 40
Method: as §1
(§3) C 3.0 % glycerin, 0.5 % Ehrlich's meat extract, 0.5 % polypeptone, 0.5 % NaCl, 1.5 % agar (pH 7.0)

[7] = test system: Mycobacterium smegmatis ATCC-607; experiment: as above; type: cell-based; conditions: medium C, 37 °C, time 40
Method: as §1, §3

[8] = test system: Pseudomonas aeruginosa IFO-3080; experiment: as above; type: cell-based; conditions: medium B, 37 °C, time 20
Method: as §1
(§4) B 0.5 % ehrlich's meat extract, 0.5 % polypeptone, 0.5 % NaCl, 1.5 % agar (pH 7)

[9] = test system: Escherichia coli IFO-3044; experiment: as above; type: cell-based; conditions: medium B, 37 °C, time 20
Method: as §1, §4

[10] = test system: Proteus vulgaris IFO-3045; experiment: as above; type: cell-based; conditions: medium B, 37 °C, time 20
Method: as §1, §4

[11] = test system: Bacillus subtilis IFO-3513; experiment: as above; type: cell-based; conditions: medium B, 37 °C, time 20
Method: as §1, §4

[12] = test system: Staphylococcus aureus IFO-3061; experiment: as above; type: cell-based; conditions: medium B, 37 °C, time 20
Method: as §1, §4

[13] = test system: Sphaerotheca fuliginea Pollacci; experiment: Control effect against drug-resistant powdery mildew on cucumber; conditions: 40 ppm, 7 days
Source text: as §6
The leaves of a cucumber plant (Cucumis sativus L. f. Suyo) infected with powdery mildew were flipped over a 1-month cucumber plant in a pot so that the latter was inoculated with Sphaerotheca fuliginea Pollacci. After 1 day, the fungicidal solutions prepared in the same manner as Test Example 1 were sprayed in sufficient volume over the plant. After about 14 days, the fungal growth formed were used to further inoculate intact cucumber plants. One day after the inoculation, fungicidal solution was sprayed and, after 7 days, the percent area of the lesion was determined.

[14] = test system: powdery mildew of oak tree; experiment: Control test of powdery mildew of oak tree
Method: as §6
This test was conducted with shoots of naturally grown oak (Quercus glauca Thunb.) trees about 10 years old. The fungicidal solutions prepared in the same manner as Test Example 1 were applied in mists.
The old mature leaves had already been severely diseased and, therefore, spontaneous infection of young leaves on the shoots was expected.
The number of treated leaves was 50 per group. The percent area of the lesion on treated leaves was investigated at 7 days after the treatment.

[15] = test system: Aspergillus niger IFO-4066; experiment: Antimicrobial spectrum (in vitro), agar dilution and diffusion methods; type: cell-based; conditions: medium A, 28 °C, time 40
[16] = test system: certain gram-positive bacteria, gram-negative bacteria, phytopathogenic fungi and certain yeasts; experiment: Antimicrobial spectrum, summary; type: cell-based; conditions: in vitro
Method: as §1

[17] = test system: Saccharomyces cerevisiae IFO-0209; experiment: Antimicrobial spectrum (in vitro), agar dilution and diffusion methods; type: cell-based; conditions: medium A, 28 °C, time 40
[18] = test system: Penicillium chrysogenum IFO-4626; experiment: as above; type: cell-based; conditions: medium A, 28 °C, time 40
powdery mildew of rose [19] = experiment: Control test of the powdery mildew of rose (Arlene Francis); type: in vivo
Method: (§5) For this test, rose (Rosa spp.) plants were grown in pots at a green-house.As test plants (forma species: Super Star and Arlene Francis) were used in groups of 3 pots per treatment. […] The number of diseased leaflets on three branches per pot was investigated 7 days after the third application and the percentage of diseased leaflets relative to the total number of leaflets investigated was calculated.

[20] = test system: Cochliobolus miyabeanus IFO-5277; experiment: Antimicrobial spectrum (in vitro), agar dilution and diffusion methods; type: cell-based; conditions: medium A, 28 °C, time 40
Erysiphe graminis = experiment: Activity against powdery mildew of barley (seedlings in test tubes); conditions: for Percent area of lesion: 18 °C, 7 days
Method: The unfolded leaves were inoculated with conidia of Erysiphe graminis using a small brush and each stock was kept in a test tube at 18° C for 7 days. The percent area of the resultant lesion was calculated to determine the effect of the test drug.

[21] = test system: Sclerotinia sclerotiorum IFO-9395; experiment: Antimicrobial spectrum (in vitro), agar dilution and diffusion methods; type: cell-based; conditions: medium A, 28 °C, time 40
[22] = test system: powdery mildew of apple plant; experiment: Control test of powdery mildew of apple plant; type: in vivo; conditions: 12 days
Method: as §6
The seedlings of the apple (Malus pumila Miller var. domestica Schneider f. Rall's Janet) in their 5- to 8-leaf stage were employed. The pathogenic fungi on diseased leaves of an apple plant were dusted over the tops of the seedlings which, then, were kept in a green-house. […] After the application, the seedlings were further grown in a green-house. After 12 days, the percent area of the lesion was investigated. The test was conducted in hexaplicate for each group.

[23] = test system: Sphaerotheca fuliginea (Schlechtendahl) Pollacci; experiment: Control test of powdery mildew of oriental melon; type: in vivo
[24] = test system: Candida albicans IFO-0583; experiment: Antimicrobial spectrum (in vitro), agar dilution and diffusion methods; type: cell-based; conditions: medium A, 28 °C, time 40
[25] = test system: Rhodotorula rubra IFO-0870; experiment: as above; type: cell-based; conditions: medium A, 28 °C, time 40
[26] = test system: Trichophyton mentagrophytes IFO-5809; experiment: as above; type: cell-based; conditions: medium D, 28 °C, time 88
Method: as §1

powdery mildew of barley = experiment: Control test of powdery mildew of barley (pots); type: in vivo, Erysiphe graminis
powdery mildew of rose [27] = experiment: Control test of the powdery mildew of rose (Super Star); type: in vivo
Method: as §5

NC(N)=NCC(O)CC(O)(C(=O)O)[C@H]1O[C@@H](n2cc(CO)c(N)nc2=O)C=C[C@@H]1NC(=O)[C@@H](N)CO (some centres unmarked) [B-98891]
Minimal inhibitory concentration [1]: > 500 µg/mL
fish toxicity (Japanese killifish): no toxic effect; also recorded: substantially harmless to fish
Minimal inhibitory concentration [2]: 100 µg/mL (≈ 194 µM)
Diameter of inhibition zone ([2]; paper disc 7 mm, 5000 μg/ml): 25 mm
Percent area of the lesion (powdery mildew of pepper; 80 ppm, 7 days): 7.9%
Percent area of the lesion (powdery mildew of pepper; 80 ppm, 10 days): 10.3%
Percent area of the lesion (powdery mildew of pepper; 160 ppm, 7 days): 5.0%
Percent area of the lesion (powdery mildew of pepper; 160 ppm, 10 days): 4.6%
Degree of sporulation ([3]; 250 ppm): Moderate
Percent area of lesions ([3]; 250 ppm): 100%
Degree of sporulation ([3]; 500 ppm): None
Percent area of lesions ([3]; 500 ppm): 0%
Percent area of lesion ([4]; 40 ppm, 9 days): 11.6%
Percent area of lesion ([4]; 40 ppm, 15 days): 20.4%
Percent area of lesion ([4]; 80 ppm, 9 days): 10.0%
Percent area of lesion ([4]; 80 ppm, 15 days): 13.2%
Percent area of lesion ([4]; 160 ppm, 9 days): 6.0%
Percent area of lesion ([4]; 160 ppm, 15 days): 8.5%
Minimal inhibitory concentration [5]: 100 µg/mL (≈ 194 µM)
Diameter of inhibition zone ([5]; paper disc 7 mm, 5000 μg/ml): 18 mm
Minimal inhibitory concentration (Botrytis cinerea TKF-12): 250 µg/mL (≈ 486 µM)
Diameter of inhibition zone (Botrytis cinerea TKF-12; paper disc 7 mm, 5000 μg/ml): 15 mm
Minimal inhibitory concentration [6]: 50 µg/mL (≈ 97.2 µM)
Diameter of inhibition zone ([6]; paper disc 7 mm, 5000 μg/ml): 27 mm
Minimal inhibitory concentration [7]: 250 µg/mL (≈ 486 µM)
Diameter of inhibition zone ([7]; paper disc 7 mm, 5000 μg/ml): 24 mm
Minimal inhibitory concentration [8]: > 500 µg/mL
Minimal inhibitory concentration [9]: 500 µg/mL (≈ 972 µM)
Diameter of inhibition zone ([9]; paper disc 7 mm, 5000 μg/ml): 14 mm
Minimal inhibitory concentration [10]: > 500 µg/mL
Diameter of inhibition zone ([10]; paper disc 7 mm, 5000 μg/ml): 11 mm
Minimal inhibitory concentration [11]: > 500 µg/mL
Diameter of inhibition zone ([11]; paper disc 7 mm, 5000 μg/ml): 14 mm
Minimal inhibitory concentration [12]: > 500 µg/mL
Diameter of inhibition zone ([12]; paper disc 7 mm, 5000 μg/ml): 10 mm
Percent area of lesion ([13]; inoculum: control (untreated)): 15.8%
Percent area of lesion ([13]; inoculum: lesions after application of B-98891 (80ppm)): 18.3%
Percent area of lesion ([13]; inoculum: lesions after application of Benlate WP (250 ppm)): 21.7%
Percent area of lesion ([14]; 40 ppm, 7 days): 8.3%
Percent area of lesion ([14]; 40 ppm, 14 days): 26.4%
Percent area of lesion ([14]; 80 ppm, 7 days): 1.1%
Percent area of lesion ([14]; 80 ppm, 14 days): 1.5%
Percent area of lesion ([14]; 160 ppm, 7 days): 0.6%
Percent area of lesion ([14]; 160 ppm, 14 days): 0.5%
toxicity in rats (summary) (Acute toxicity in rats): mild
LD50 (Acute toxicity in rats; intravenous): > 500 mg/kg
LD50 (Acute toxicity in rats; oral): > 2000 mg/kg
Minimal inhibitory concentration [15]: > 500 µg/mL
antimicrobial activity [16]: weakly active
Minimal inhibitory concentration [17]: > 500 µg/mL
Diameter of inhibition zone ([17]; paper disc 7 mm, 5000 μg/ml): 12 mm
Minimal inhibitory concentration [18]: > 500 µg/mL
Diameter of inhibition zone ([18]; paper disc 7 mm, 5000 μg/ml): 13 mm
Percent of diseased leaflet (powdery mildew of rose [19]; 40 ppm): 14.9%
Percent of diseased leaflet (powdery mildew of rose [19]; 80 ppm): 6.7%
Percent of diseased leaflet (powdery mildew of rose [19]; 160 ppm): 2.2%
Minimal inhibitory concentration [20]: > 500 µg/mL
Diameter of inhibition zone ([20]; paper disc 7 mm, 5000 μg/ml): 15 mm
Percent area of lesion (Erysiphe graminis; 3.12 ppm): 40%
Percent area of lesion (Erysiphe graminis; 6.25 ppm): 26%
Percent area of lesion (Erysiphe graminis; 12.5 ppm): 0%
Percent area of lesion (Erysiphe graminis; 25 ppm): 0%
Percent area of lesion (Erysiphe graminis; 50 ppm): 0%
onset control activity (Erysiphe graminis; compared with the commercially available chemical (Benomyl wettable powder)): more potent onset control activity than the commercially available chemical
activity against the causative agent of powdery mildew of barley (Erysiphe graminis) (summary) (Erysiphe graminis; in vivo): characteristically high activity
Minimal inhibitory concentration [21]: 500 µg/mL (≈ 972 µM)
Diameter of inhibition zone ([21]; paper disc 7 mm, 5000 μg/ml): 20 mm
Percent area of the lesion ([22]; 40 ppm): 0.9%
Percent area of the lesion ([22]; 80 ppm): 0.6%
Percent area of the lesion ([22]; 160 ppm): 0%
Percent area of the lesion ([23]; 40 ppm, 7 days): 0%
Percent area of the lesion ([23]; 40 ppm, 14 days): 19.0%
Percent area of the lesion ([23]; 40 ppm, 21 days): 40.0%
Percent area of the lesion ([23]; 80 ppm, 7 days): 1.5%
Percent area of the lesion ([23]; 80 ppm, 14 days): 7.0%
Percent area of the lesion ([23]; 80 ppm, 21 days): 24.0%
Percent area of the lesion ([23]; 160 ppm, 7 days): 0.6%
Percent area of the lesion ([23]; 160 ppm, 14 days): 0.6%
Percent area of the lesion ([23]; 160 ppm, 21 days): 5.0%
Minimal inhibitory concentration [24]: > 500 µg/mL
Minimal inhibitory concentration [25]: 50 µg/mL (≈ 97.2 µM)
Diameter of inhibition zone ([25]; paper disc 7 mm, 5000 μg/ml): 80 mm
Minimal inhibitory concentration [26]: 500 µg/mL (≈ 972 µM)
Percent area of lesions (powdery mildew of barley; 15.6 ppm, 6th leaf, A: 10 days after first application): 0.4%
Percent area of lesions (powdery mildew of barley; 15.6 ppm, 6th leaf, B: 10 days after second application): 2.1%
Percent area of lesions (powdery mildew of barley; 15.6 ppm, 6th leaf, C: 10 days after third application): 0.8%
Percent area of lesions (powdery mildew of barley; 15.6 ppm, 9th leaf, B: 10 days after second application): 2.3%
Percent area of lesions (powdery mildew of barley; 15.6 ppm, 9th leaf, C: 10 days after third application): 10.5%
Percent area of lesions (powdery mildew of barley; 31.2 ppm, 6th leaf, A: 10 days after first application): 0.3%
Percent area of lesions (powdery mildew of barley; 31.2 ppm, 6th leaf, B: 10 days after second application): 2.0%
Percent area of lesions (powdery mildew of barley; 31.2 ppm, 6th leaf, C: 10 days after third application): 1.3%
Percent area of lesions (powdery mildew of barley; 31.2 ppm, 9th leaf, B: 10 days after second application): 0.3%
Percent area of lesions (powdery mildew of barley; 31.2 ppm, 9th leaf, C: 10 days after third application): 1.3%
Percent area of lesions (powdery mildew of barley; 62.5 ppm, 6th leaf, A: 10 days after first application): 0.1%
Percent area of lesions (powdery mildew of barley; 62.5 ppm, 6th leaf, B: 10 days after second application): 0.1%
Percent area of lesions (powdery mildew of barley; 62.5 ppm, 6th leaf, C: 10 days after third application): 0%
Percent area of lesions (powdery mildew of barley; 62.5 ppm, 9th leaf, B: 10 days after second application): 0.5%
Percent area of lesions (powdery mildew of barley; 62.5 ppm, 9th leaf, C: 10 days after third application): 0.4%
toxicity in mice (summary) (Acute toxicity in mice): mild
LD50 (Acute toxicity in mice; intravenous): > 500 mg/kg
LD50 (Acute toxicity in mice; oral): > 2000 mg/kg
Percent of diseased leaflet (powdery mildew of rose [27]; 40 ppm): 5.6%
Percent of diseased leaflet (powdery mildew of rose [27]; 80 ppm): 3.2%
Percent of diseased leaflet (powdery mildew of rose [27]; 160 ppm): 2.6%

Source: US4007267A, “Antibiotic B-98891” (priority 1974, dated 1977)
